Earlier results on one substance are cited in US20090023644A1 (priority 2004, published 2009).

Read-outs that look alike come from different tables or passages of the source.

The conditions of data set [1]: 8 ng/kg/min IV infusion for 8 hours.
For data set [2] the following is noted: 600 ng/min.
Where [3] appears, read: IV infusion 10 or 20 minutes at 0.8, 3.2 or 16 ng/kg/min.

Calcitonin gene-related peptide [CGRP]: under setting [3], the cardiac output entry was “increase”, the systemic vascular resistance entry is reported as “decreased” and the tachycardia result is on record as “no tachycardia observed”. Further, where the note is “at lower doses”, the “type of vasodilator behaviour” value was “pure arteriolar vasodilator”. Moreover, the “type of vasodilator behaviour” value (at the higher dose) is “mixed vasodilator”. Further, in data set [1], the cardiac output result was “increased”; the “pulmonary and systemic arterial pressure” value was “decreased”; the “time to loss of hemodynamic effects after stopping CGRP infusion” value was not above 30 min; the vascular resistance result is “decreased”. In data set [1] (during treatment), the glomerular filtration entry is recorded as “increased” and the renal blood flow entry is reported as “increased”. For the same substance, the “discontinuation of infusion due to nausea, diarrhea, and/or severe facial flushing” value in data set [2] (48-hour continuous IV infusion) was “discontinued after 28 hours in 3 out of the 6 patients”. Further, in data set [2] (pulsed therapy), the “hemodynamic functions such as left ventricular function” value was “improve”; the unfavorable side effects entry is “tachycardia and neurohumoral response were also observed”. Besides, in data set [2] (pulsed therapy (2-8 hour infusions for two consecutive days)), the tolerability result is “well tolerated”.
